Measured values as given in publication PMC12213745, “Compounds from Cyclocarya paliurus leaves inhibit binary division of methicillin-resistant Staphylococcus aureus by disrupting FtsZ dynamic” (Frontiers in Microbiology, 2025).

Experiments:
MRSA-4 = assay: MRSA skin infection model; assay type: in vivo, BALB/c mice
Description: All animal experiments were conducted in accordance with the NIH Guide for the Care and Use of Laboratory Animals and the institutional guidelines of West China Hospital, Sichuan University. The study was approved by the Institutional Animal Care and Use Committee (HX20220224085). Female BALB/c mice (6–8 weeks old) were obtained from Chengdu DOSSY Experimental Animal Co., Ltd. (Chengdu, China) and randomly assigned to five groups (n = 6 per group). On day 0, mice were subcutaneously inoculated with 2 × 10^8 CFUs of MRSA-4 suspended in 50 μL of sterile PBS. Treatment commenced 24 h post-infection. Mice received once daily subcutaneous injections at the site of infection for four consecutive days with either AA (0.2, 0.4, or 0.8 mg/kg), vancomycin (0.8 mg/kg, positive control), or PBS (negative control). Lesion progression was monitored daily by photographing the infected area, and wound sizes were quantified using ImageJ software (Version 1.42q, NIH, USA). On day 5 post-infection, mice were anesthetized and euthanized. The whole lesioned skin tissues were aseptically excised, homogenized in 1 mL of sterile PBS, and serially diluted. Aliquots were plated on LB agar and incubated at 37°C overnight to determine bacterial burdens.
Building on its rapid bactericidal activity in vitro and unique FtsZ-binding profile, we next evaluated the in vivo therapeutic efficacy of AA using a murine skin infection model. The model was established in BALB/c mice by subcutaneous inoculation with 2 × 10^8 CFU of MRSA-4 (Figure 7A). Treatment began 24 h post-infection and consisted of daily subcutaneous injections at the infection site for four consecutive days with AA (0.2, 0.4, or 0.8 mg/kg), vancomycin (at 0.8 mg/kg; positive control), or PBS (negative control). Therapeutic outcomes were assessed on day 5 post-infection by quantifying bacterial burden, visually monitoring wound healing, and measuring abscess size.

[1] = system: S. enterica subsp. Enterica (1.1114); assay: MIC, broth microdilution (CLSI); assay type: cell-based, Salmonella enterica subsp. enterica; conditions: Salmonella enterica; S. enterica subsp. Enterica (1.1114); ≥ 90% growth inhibition, 18–24 h; read-out: MIC
From the text: Staphylococcus aureus ATCC25923 and Escherichia coli ATCC25922 were obtained from the American Type Culture Collection (ATCC, Manassas, VA, USA). The Methicillin-resistant S. aureus (MRSA) clinical isolate MRSA-4, previously confirmed as mecA-positive and characterized for its antibiotic resistance profile ([Sun et al., 2023]), was used in this study. Staphylococcus epidermidis (GDMCC 1.143), Enterococcus faecalis (GDMCC 1.164), and Salmonella enterica subsp. enterica (GDMCC 1.1114) were obtained from the Guangdong Microbial Culture Collection Center (GDMCC, Guangzhou, China). The Pseudomonas aeruginosa PA14 strain was kindly provided by Professor Min Wu (Southwest Medical University, China). All bacterial strains were routinely cultured in Mueller-Hinton broth (MHB) or Luria-Bertani (LB) broth medium at 37°C with shaking at 200 rpm. Vancomycin was purchased from Solarbio Science & Technology Co., Ltd. (Beijing, China), and oxacillin was obtained from Taiji Group Hengsheng Pharmaceutical Co., Ltd. (Chengdu, China). The polyclonal rabbit primary anti-body to FtsZ was purchased from Abcam PLC (Cambridge, UK). Alexa488-conjugated goat anti-rabbit IgG was purchased from ZSGB-BIO Biotechnology (Beijing, China). DAPI staining solution was purchased from Beyotime Biotechnology (Shanghai, China).
The minimum inhibitory concentrations (MICs) of the test compounds (AA, MA, and UA) were determined using the standard broth microdilution method in accordance with the Clinical and Laboratory Standards Institute (CLSI) guidelines ([Humphries et al., 2021]). Bacteria were cultured in MHB or LB broth at 37°C with shaking (200 rpm) to the logarithmic phase, then diluted to a final density of 1 × 10^6 CFU/mL. Test compounds (dissolved in DMSO) and positive controls (vancomycin and oxacillin) were diluted in MHB and serially twofold diluted in 96-well plates. Each well was inoculated with 100 μL of bacterial suspension (1 × 10^6 CFU/mL), yielding a final bacterial density of 5 × 10^5 CFU/mL and a total volume of 200 μL. The final concentrations tested were 128 to 1 μg/mL for AA, MA, and UA; 16 to 0.5 μg/mL for vancomycin; and 64 to 0.0625 μg/mL for oxacillin. DMSO was used as a solvent control. Plates were incubated statically at 37°C for 18–24 h. After incubation, the OD600 was measured using a microplate reader (SpectraMax i3x, Molecular Devices, CA, USA). The MIC was defined as the lowest compound concentration that caused ≥ 90% inhibition of bacterial growth compared to the drug-free growth control. All tests were performed in three independent biological replicates.
Following the isolation and identification of AA, MA, and UA from ECPL, we evaluated their antibacterial activity and spectrum. The MICs of the compounds were determined against MRSA-4, S. aureus ATCC25923, S. epidermidis, and E. faecalis (Gram-positive), as well as P. aeruginosa PA14, E. coli ATCC25922, and S. enterica subsp. Enterica (Gram-negative) using the standard broth microdilution method in accordance with CLSI guidelines ([Humphries et al., 2021]).

[2] = 0.8 mg/kg s.c. once daily for 4 days, day 5, vs PBS

SMILES: C[C@H]1[C@H](C)CC[C@]2(C(=O)O)CC[C@]3(C)C(=CC[C@@H]4[C@@]5(C)C[C@@H](O)[C@H](O)[C@@](C)(CO)[C@@H]5CC[C@]43C)[C@H]12 [AA, asiatic acid]
- wound healing (visual inspection) (MRSA-4; 0.8 mg/kg s.c. once daily for 4 days): substantial amelioration of symptoms
- abscess size (MRSA-4; [2]): significantly reduced abscess dimensions
- bacterial load in infected skin tissues (MRSA-4; [2]): significantly reduced bacterial counts
- bacterial load in infected skin tissues (MRSA-4; 0.2 and 0.4 mg/kg s.c. once daily for 4 days, day 5, vs PBS): modest but dose-responsive decreases in bacterial load
- wound healing (visual inspection) (MRSA-4; low-dose (0.2 and 0.4 mg/kg) s.c. once daily for 4 days): moderate, dose-dependent improvements in wound appearance
- MIC [1]: > 128 µg/mL

SMILES: CC1(C)CC[C@]2(C(=O)O)CC[C@]3(C)C(=CC[C@@H]4[C@@]5(C)C[C@@H](O)[C@H](O)C(C)(C)[C@@H]5CC[C@]43C)[C@@H]2C1 [MA, maslinic acid]
- MIC [1]: > 128 µg/mL

SMILES: C[C@H]1[C@H](C)CC[C@]2(C(=O)O)CC[C@]3(C)C(=CC[C@@H]4[C@@]5(C)CC[C@H](O)C(C)(C)[C@@H]5CC[C@]43C)[C@H]12 [UA, ursolic acid]
- MIC [1]: > 128 µg/mL
